Experimental data published in ChEMBL document CHEMBL5604065, “ASAP - DENV-3 NS2B-NS3 protease fluorescence dose response” (2024).
“And” between values parts separate entries of the source, which are not always exact repeats. Identical values can stand only once.

Each compound was assayed against T1, NS3 protease (dengue virus type 3, UniProt A0A0B5JFF1) (assay: Functional biochemical assay to identify treatments for viral infectious disease that targets Dengue virus type 3 NS2B-NS3 protease. Utilizing a direct enzyme activity measurement method, reading the fluorescence intensity is used to characterize the relative potency of inhibitors as IC50.).
T1 sequence (A0A0B5JFF1 whole entry): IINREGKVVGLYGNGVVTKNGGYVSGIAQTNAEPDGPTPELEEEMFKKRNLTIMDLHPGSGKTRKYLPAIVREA
Design: species or system Philippines/H87/1956

| Compound | IC50 |
| --- | --- |
| O=C(Nc1cc(Br)c2c(c1)CNC2)c1cc(F)cc2[nH]ncc12 | 15 µM |
| O=C(Nc1cc(Cl)cc(C(=O)Nc2ccc3c(c2)CCNC3)c1)OCc1ccccc1 | 24.4 µM |
| O=C(Nc1ccc2c(c1)CNC2)c1cc(Cl)cc2nn(-c3ccccc3)nc12 | 4.73 µM |
| COc1cc(-c2cc(NC(=O)c3cc(F)cc4[nH]ncc34)cc3c2CNC3)ccn1 | 12.9 µM |
| N#C[C@H](Nc1ccc2c(c1)CNC2)c1cc(Cl)cc(C2CC2)c1 | > 99.5 µM |
| CC(C)CNC(=O)c1cc(Cl)ccc1NS(=O)(=O)c1ccc(Oc2ccccc2Cl)cc1 | 12.1 µM |
| C=CC[C@H]1NCc2cc(NC(=O)c3cccc4c3CC(=O)N4)ccc21 | > 99.5 µM |
| O=C1Cc2c(cc(Br)cc2C(=O)Nc2ccc3c(c2)CNC3)N1 | 17.8 µM |
| CC(C)c1nnc(-c2nc3c(C(=O)Nc4ccc5c(c4)CNC5)cc(F)cc3[nH]2)s1 | 10.8 µM |
| O=C(NC1CCOCC1)[C@H](Nc1ccc2c(c1)CNC2)c1cc(Cl)cc2[nH]ncc12 | 39.5 µM |
| N=C(N)NCCC[C@H](NC(=O)[C@H](Cc1ccc(CN)cc1)NC(=O)c1ccccc1)B(O)O | 0.819 µM and 0.784 µM and 0.98 µM |
| O=C(Nc1ccc2c(c1)CNC2)c1cccc2cn[nH]c12 | 37.3 µM |
| CCOCCNC(=O)[C@H](Nc1ccc2c(c1)CNC2)c1cc(Cl)cc2[nH]ncc12 | > 99.5 µM |
| N#C[C@H](Nc1cccc(-c2nn[nH]n2)c1)c1cc(Cl)cc(NC(=O)OCc2ccccc2)c1 | 9.59 µM |
| NCc1cccc(NC(=O)c2cc(Cl)cc(NC(=O)OCc3ccccc3)c2)c1 | 26.8 µM |
| N#Cc1ccc(-c2nc3c(C(=O)Nc4ccc5c(c4)CNC5)cc(F)cc3[nH]2)cc1 | 1.7 µM |
| NCc1csc2cc(C(=O)Nc3ccc4c(c3)CNC4)ccc12 | 9.07 µM |
| O=C(Nc1ccc2c(c1)CNC2)c1ccc2c(C3=CCNCC3)csc2c1 | 54.4 µM |
| O=C(Nc1ccc2c(c1)CNC2)c1cc(Cl)cc(C(F)(F)F)n1 | 10.4 µM |
| O=C(Nc1ccc2c(c1)CNC2)c1cccc2[nH]c(C(F)(F)F)cc12 | 31.8 µM |
| O=C(Nc1ccc2c(c1)CNC2)c1cc(F)cc2[nH]c(-c3ccccc3F)nc12 | 3.44 µM |
| O=C(Nc1cc(Cl)cc(-c2ccc3[nH]c(C(=O)O)cc3c2)c1)OCc1ccccc1 | 5 µM |
| C=CC[C@H]1NCc2cc(N[C@H](C(=O)NC(C)C)c3cc(Cl)cc4[nH]ncc34)ccc21 | 55.1 µM |
| Cc1[nH]c2ccccc2c1CN1CCC(c2c[nH]c3ncccc23)CC1 | > 99.5 µM |
| O=C(Nc1ccc2c(c1)CNC2)c1cc(F)cc2c1CCC2 | > 99.5 µM |

| Compound | IC50 |
| --- | --- |
| Cc1ccc(NC(=O)c2cc(Cl)cc(NC(=O)OCc3ccccc3)c2)cc1CN | 57.7 µM |
| C=CC[C@H]1NCc2cc(NC(=O)c3cc(Cl)cc4[nH]ncc34)ccc21 | 68.2 µM |
| Cn1cc(CCc2nc3c(C(=O)Nc4ccc5c(c4)CNC5)cc(Cl)cc3[nH]2)cn1 | 23.7 µM |
| CN1Cc2ccc(NC(=O)c3cc(Cl)cc4[nH]ncc34)cc2C1 | 92.8 µM |
| O=C1Cc2cc(C(=O)Nc3ccc4c(c3)CNC4)ccc2N1 | 7.13 µM and 5.44 µM |
| O=C(Nc1ccc2c(c1)CNC2)c1cc(Cl)cc2cn[nH]c12 | 41.9 µM |
| O=C(NCC(F)F)[C@H](Nc1ccc2c(c1)CNC2)c1cc(F)cc2[nH]ncc12 | 93.7 µM |
| O=C(Nc1cc2c(cc1Br)CNC2)c1cc(F)cc2[nH]ncc12 | 21.8 µM |
| Cn1cc(CNC(=O)[C@H](Nc2ccc3c(c2)CNC3)c2cc(Cl)cc(C3CC3)c2)cn1 | 81.8 µM |
| O=C(Nc1ccc2c(c1)CNC2)c1cc(Cl)cc2ccncc12 | 69.8 µM |
| CC(C)NC(=O)[C@H](Nc1ccc2c(c1)CNC2)c1cc(Cl)cc2[nH]ncc12 | 26.2 µM |
| NCCc1csc2cc(C(=O)Nc3cc([C@H]4CCOC4)ccn3)ccc12 | > 99.5 µM |
| O=C(Nc1ccc2c(c1)CNC2)c1cccc2nc(O)ccc12 | > 99.5 µM |
| O=C(Nc1cc(Cl)cc(C(=O)Nc2cccc([C@H]3C[C@H]3C(=O)O)c2)c1)OCc1ccccc1 | 22.6 µM |
| O=C(Nc1cc(Cl)cc([C@H]2C[C@@H]2c2cccc(C3CCNCC3)c2)c1)OCc1ccccc1 | 4.79 µM |
| O=C(Nc1ccc2c(c1)CNC2)c1ccc2[nH]cc(C3CCNCC3)c2c1 | 29.2 µM |
| O=C(Nc1cc2c(c(C3=CCS(=O)(=O)CC3)c1)CNC2)c1cc(F)cc2[nH]ncc12 | 12.8 µM |
| O=C(Nc1cc(Cl)cc(C(=O)Nc2cccc(-n3nn[nH]c3=O)c2)c1)OCc1ccccc1 | 10.5 µM |
| OCC#C[C@H](Nc1ccc2c(c1)CNC2)c1cc(Cl)cc2[nH]ncc12 | 26.2 µM |
| Cn1cc2cc(Cl)cc(C(=O)Nc3ccc4c(c3)CNC4)c2n1 | > 99.5 µM |
| O=C1Cc2c(cccc2C(=O)Nc2ccc3c(c2)CNC3)N1 | 14.2 µM |
| CC(C)NC(=O)[C@H](Nc1ccc2c(c1)CNC2)c1cc(Cl)cc2[nH]c(-c3ccccc3)nc12 | 7.06 µM and 2.21 µM |
| COc1cccc(-c2nc3c(C(=O)Nc4ccc5c(c4)CNC5)cc(F)cc3[nH]2)c1 | 3.72 µM |
| NCc1cccc([C@H]2C[C@@H]2c2cc(Cl)cc(NC(=O)OCc3ccccc3)c2)c1 | 7.85 µM |
| O=C(Nc1ccc2c(c1)CNC2)c1cc(F)c2[nH]ccc2c1 | > 99.5 µM |

| Compound | IC50 |
| --- | --- |
| Cn1c(=O)[nH]c2c(C(=O)Nc3ccc4c(c3)CNC4)cc(Br)cc21 | > 99.5 µM |
| Cc1nc2c(C(=O)Nc3ccc4c(c3)CNC4)cc(Cl)cc2[nH]1 | > 99.5 µM |
| CC(C)(c1nc2c(C(=O)Nc3ccc4c(c3)CNC4)cc(F)cc2[nH]1)S(C)(=O)=O | 13.6 µM |
| O=C(Nc1ccc2c(c1)CNC2)c1cc(F)cc2[nH]c(-c3cccc(F)c3)nc12 | 2.73 µM |
| CC(C)(C)c1cc(Br)cc(C(=O)Nc2ccc3c(c2)CNC3)c1 | > 99.5 µM |
| NCCc1csc2cc(C(=O)Nc3ccc4c(c3)CNC4)ccc12 | > 99.5 µM |
| Cc1cccc(-c2nc3c(C(=O)Nc4ccc5c(c4)CNC5)cc(F)cc3[nH]2)c1 | 6.16 µM |
| N[C@H]1CC[C@H](c2ccc(NC(=O)c3cc(Cl)cc(NC(=O)OCc4ccccc4)c3)cc2)C1 | 5.84 µM |
| O=C(NCC(F)F)[C@H](Nc1ccc2c(c1)CNC2)c1cc(F)cc2[nH]ccc12 | > 99.5 µM |
| O=C(Nc1ccc2c(c1)CNC2)c1cc(Br)cc2[nH]c(-c3ccccc3)nc12 | 1.47 µM |
| O=C(NCC(F)F)[C@H](Nc1ccc2c(c1)CNC2)c1cc(Cl)cc(C2CC2)c1 | 28.5 µM and > 99.5 µM and 23.8 µM |
| O=C(Nc1ccc2c(c1)CNC2)c1cc(F)cc2[nH]c(-c3ccc(F)cc3)nc12 | 2.96 µM |
| CNC(=O)[C@H](Nc1ccc2c(c1)CNC2)c1cc(Cl)cc(C2CC2)c1 | > 99.5 µM |
| C=CC[C@H](Nc1cc(Cl)cc(NC(=O)OCc2ccccc2)c1)c1cccc(-c2nn[nH]n2)c1 | 6.43 µM |
| O=C(Nc1ccc2c(c1)CNC2)c1cc(Br)cc2[nH]c(=O)[nH]c12 | 21.5 µM |
| O=C1Cc2c(cc(F)cc2C(=O)Nc2ccc3c(c2)CNC3)N1 | 8.59 µM |
| CNC(=O)[C@H](Nc1cc(CN)cc(-c2nn[nH]n2)c1)c1cc(Cl)cc(C2CC2)c1 | > 99.5 µM |
| NCc1ccc(-c2csc3cc(C(=O)Nc4ccc5c(c4)CNC5)ccc23)cc1 | 31.6 µM |
| O=C(Nc1cc(Cl)cc([C@H](C#CCO)Nc2cccc(-c3nn[nH]n3)c2)c1)OCc1ccccc1 | 11.9 µM |
| O=C(Nc1ccc2c(c1)CNC2)c1cc(F)cc2[nH]ncc12 | 23.4 µM |
| O=C(NC1CCOCC1)[C@H](Nc1ccc2c(c1)CNC2)c1cc(Cl)cc(C2CC2)c1 | 53.4 µM |
| NCc1cccc(-c2csc3cc(C(=O)Nc4ccc5c(c4)CNC5)ccc23)c1 | 29.8 µM |
| O=C(Nc1ccc2c(c1)CNCC2)c1cc(Cl)cc2[nH]ncc12 | 93.9 µM |
| Clc1ccc2[nH]cc(Cc3ccc(-c4nn[nH]n4)cc3)c2c1 | 44.1 µM |
| CCc1cc(C(=O)Nc2cccc(-n3nn[nH]c3=O)c2)sc1-c1ccc(Cl)cc1 | 11.9 µM |

| Compound | IC50 |
| --- | --- |
| NCc1ccc([C@H]2C[C@@H]2c2cc(Cl)cc(NC(=O)OCc3ccccc3)c2)cc1 | 6.85 µM |
| O=C(Nc1ccc2c(c1)CNC2)c1cccc2[nH]c(=O)[nH]c12 | 40.8 µM |
| O=C(Nc1ccc2c(c1)CNC2)c1cc(Cl)cc2cc[nH]c12 | 87.9 µM |
| O=C(Nc1ccc2c(c1)CNC2)c1cc(Cl)cc2[nH]ncc12 | 13.4 µM |
| O=C(Nc1ccc2c(c1)CNC2)c1cccc(-c2cnco2)c1 | 21.2 µM |
| Cc1cccc(-c2nc3c(C(=O)Nc4ccc5c(c4)CNC5)cc(Cl)cc3[nH]2)c1O | 4.44 µM |
| Cc1c(C(=O)Nc2cc([C@H]3CCOC3)ccn2)cc(C2CC2)n1C | > 99.5 µM |
| Clc1cc(CNc2ccc3c(c2)CNC3)c2cn[nH]c2c1 | 42.2 µM |
| O=C(NCCC1CC1)[C@H](Nc1ccc2c(c1)CNC2)c1cc(Cl)cc(C2CC2)c1 | > 99.5 µM |
| C=CC[C@H]1NCc2cc(NC(=O)c3cc(F)cc4[nH]ncc34)ccc21 | 32.3 µM |
| N=C(N)NCCC[C@H](NC(=O)c1nccs1)C(=O)N[C@@H](CCCCN)C(=O)N[C@@H](C(N)=O)c1ccc(OCc2ccc(C(F)(F)F)cc2)cc1 | 2.22 µM (2×) and 2.34 µM and 1.63 µM and 2.19 µM and 2.45 µM and 1.49 µM |
| O=C(Nc1cc2c(c(C3=CCOCC3)c1)CNC2)c1cc(F)cc2[nH]ncc12 | 8.47 µM |
| O=C(Nc1ccc2c(c1)CNC2)c1cc(F)cc2[nH]c(-c3ccccc3)nc12 | 3.57 µM |
| N#C[C@H](Nc1ccc2c(c1)CNC2)c1cc(Cl)cc2[nH]ncc12 | > 99.5 µM |
| O=C(Nc1ccc2c(c1)CNC2)c1cccc2c(C3CNC3)n[nH]c12 | 9.27 µM |
| Clc1cc([C@@H]2C[C@H]2c2cccc(C3CCNCC3)c2)c2cn[nH]c2c1 | 6.45 µM |
| Cc1c(C(=O)Nc2cc(-c3cccnc3)ccn2)cc(C2CC2)n1C | 6.22 µM |
| O=C(Nc1cc(Cl)cc(C(=O)Nc2ccc3c(c2)CNC3)c1)OCc1ccccc1 | 72.5 µM |
| CNC(=O)[C@H](Nc1cc(Cl)cc(NC(=O)OCc2ccccc2)c1)c1cccc(-c2nn[nH]n2)c1 | 40.4 µM |
| c1cc(C2CCN(Cc3c[nH]c4ccccc34)CC2)c2ccncc2c1 | > 99.5 µM |
| CC(C)c1cc(Br)cc(C(=O)Nc2ccc3c(c2)CNC3)c1 | > 99.5 µM |
| N#Cc1cccc(-c2nc3c(C(=O)Nc4ccc5c(c4)CNC5)cc(F)cc3[nH]2)c1 | 2.31 µM |
| O=C(Nc1cc(Cl)cc([C@H]2CN(Cc3ccccc3)C[C@@H]2c2cccc(-c3nn[nH]n3)c2)c1)OCc1ccccc1 | 6.03 µM |
| Cc1ccccc1-c1nc2c(C(=O)Nc3ccc4c(c3)CNC4)cc(F)cc2[nH]1 | 2.2 µM |
| N#Cc1cc2c(cc1NC(=O)c1cc(F)cc3[nH]ncc13)CNC2 | 5.39 µM |
